# Measured values as given in US20240389587A1, “COMPOSITIONS AND METHODS FOR CONTROLLING PHYTOPATHOGENIC INFECTIONS” (INSTITUT NATIONAL DE RECHERCHE POUR L'AGRICULTURE, …, priority 2021, published 2024).
# Like-named read-outs stand apart in the source and are kept apart here.
# Assays:
# IRE1 = target: T1, IRE1 (Saccharomyces cerevisiae, UniProt P32361); assay: IRE1 inhibitors screening (inhibition of transcriptional activator HAC1 in yeast); type: cell-based; settings: for IC50: read-out: IRE1 IC50
# T1 construct: endogenous in cells
# T1 sequence (P32361 19-1115): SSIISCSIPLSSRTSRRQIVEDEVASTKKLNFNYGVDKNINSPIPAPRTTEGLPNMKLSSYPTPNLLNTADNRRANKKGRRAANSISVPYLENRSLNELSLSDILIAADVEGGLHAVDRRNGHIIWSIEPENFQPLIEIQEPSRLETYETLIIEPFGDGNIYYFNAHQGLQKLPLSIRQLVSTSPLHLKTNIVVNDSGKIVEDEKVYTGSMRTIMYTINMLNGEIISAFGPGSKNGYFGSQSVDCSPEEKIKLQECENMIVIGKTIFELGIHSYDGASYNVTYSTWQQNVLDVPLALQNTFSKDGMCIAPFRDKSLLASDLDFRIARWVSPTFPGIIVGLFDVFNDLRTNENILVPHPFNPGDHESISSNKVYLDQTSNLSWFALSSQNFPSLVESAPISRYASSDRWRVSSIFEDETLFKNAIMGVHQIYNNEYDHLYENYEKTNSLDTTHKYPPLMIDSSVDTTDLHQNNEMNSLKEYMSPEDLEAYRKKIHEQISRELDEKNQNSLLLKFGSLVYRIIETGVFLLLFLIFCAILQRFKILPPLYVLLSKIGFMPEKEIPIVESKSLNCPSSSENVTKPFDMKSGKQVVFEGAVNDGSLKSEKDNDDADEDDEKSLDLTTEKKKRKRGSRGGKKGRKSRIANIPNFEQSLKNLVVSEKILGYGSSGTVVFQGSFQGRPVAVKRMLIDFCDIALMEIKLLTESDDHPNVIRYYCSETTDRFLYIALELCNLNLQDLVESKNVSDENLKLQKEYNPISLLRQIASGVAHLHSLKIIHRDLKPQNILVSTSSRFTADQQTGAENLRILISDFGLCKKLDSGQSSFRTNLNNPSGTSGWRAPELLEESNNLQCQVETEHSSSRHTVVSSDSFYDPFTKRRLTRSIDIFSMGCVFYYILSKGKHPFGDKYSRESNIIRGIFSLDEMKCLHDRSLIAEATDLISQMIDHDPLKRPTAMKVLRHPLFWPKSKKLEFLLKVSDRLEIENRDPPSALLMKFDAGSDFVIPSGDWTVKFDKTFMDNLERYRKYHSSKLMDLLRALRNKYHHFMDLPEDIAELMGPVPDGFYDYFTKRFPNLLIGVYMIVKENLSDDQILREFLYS
# Description: A series of natural products were screened for their capacity to inhibit the UPR pathway via the inhibition of IRE1 in an in vitro screening test, based inhibition of the transcriptional activator HAC1 in Saccharomyces cerevisiae (the IRE1 protein is the ‘sole effector of the UPR pathway in fungi).
# Alternaria brassicicola = assay: In vitro nephelometric fungal growth test; settings: for Cmax (concentration inducing at most 20% inhibition of fungal growth) / CTP (retained non-fungicidal concentration applied in planta): A. brassicicola; for CTP (retained non-fungicidal concentration applied in planta): inferior to MIG50 and inferior or equal to Cmax; for IC50: Alternaria brassicicola, 33 h, read-out: MIG50 (concentration inducing 50% inhibition of fungal growth)
# Description: (§1) For inoculum preparation, conidia of A. brassicicola or B. cinerea were collected from solid culture by adding water followed by gentle scraping of the agar plate. […] Growth was monitored by nephelometric reader (NEPHELOstar Galaxy®, BMG Labtech, Offenburg, Germany) at 25° C., with orbital shaking 5 min before measurement for 33 h. Turbidity was registered every 10 mins with a gain value of 75. Each well was measured during 0.1 s with a laser beam focus of 2.5 mm. A triplicate was realized for each condition. Area under the growth curve was determined by an Excel matrix developed in the lab. Area under the growth curve was normalized by area of positive control (filamentous fungi+DMSO less compound) and PDB medium to obtain a growth percentage.
# Botrytis cinerea = assay: In vitro nephelometric fungal growth test; settings: for CTP (retained non-fungicidal concentration applied in planta): inferior to MIG50 and inferior or equal to Cmax; for IC50: Botrytis cinerea, 33 h, read-out: MIG50 (concentration inducing 50% inhibition of fungal growth)
# Description: as §1
# [1] = in vitro screening, IRE1 activity of less than 80% = retained as IRE1 inhibitor
Compound,IRE1 inhibition (in words) (IRE1),μ (% activation) ± σ (IRE1; [1]),Cmax (concentration inducing at most 20% inhibition of fungal growth) (Alternaria brassicicola),CTP (retained non-fungicidal concentration applied in planta) (Alternaria brassicicola),IC50 (Alternaria brassicicola),Cmax (concentration inducing at most 20% inhibition of fungal growth) (Botrytis cinerea; B. cinerea),CTP (retained non-fungicidal concentration applied in planta) (Botrytis cinerea; B. cinerea),IC50 (Botrytis cinerea),μ (% activation) ± σ (IRE1),IC50 (IRE1),"effect on the antifungal effects of ε-viniferin (in words) (Botrytis cinerea; γ-mangostin 100 μM + ε-viniferin 100 μM, B. cinerea, 35 hours)"
"CC(C)=CCc1c(O)cc2oc3c(O)cccc3c(=O)c2c1O [1,3,5-trihydroxy-2-prenylxanthone, 1,3,5-trihydroxy-2-(3-methylbut-2-enyl)xanthen-9-one]",inhibit IRE1 in a micromolar scale,57.4 ± 4.9%,100 µM,50 µM,> 100 µM,100 µM,25 µM,> 100 µM,–,–,–
"O=Cc1cc(I)cc(I)c1O [DISA1, 3,5-diiodosalicylaldehyde, reference compound]",–,–,2 µM,2 µM,5.3 ± 0.1 µM,2.5 µM,2.5 µM,6.3 ± 0.7 µM,–,–,–
"CC(C)=CCc1c(O)cc2oc3cc(O)c(O)c(CC=C(C)C)c3c(=O)c2c1O [γ-mangostin, 1,3,6,7-tetrahydroxy-2,8-bis(3-methylbut-2-enyl)xanthen-9-one]",inhibit IRE1 in a micromolar scale,–,5 µM,5 µM,12.2 ± 0.2 µM,100 µM,25 µM,> 100 µM,8.7 ± 5.5%,7.3 µM,potentiating effect
"CC(C)=CCc1c(O)cc(O)c2c(=O)c3cccc(O)c3oc12 [1,3,5-trihydroxy-4-prenylxanthone, 1,3,5-trihydroxy-4-(3-methylbut-2-enyl)xanthen-9-one]",inhibit IRE1 in a micromolar scale,70.9 ± 3.2%,10 µM,10 µM,41.3 ± 3.7 µM,100 µM,25 µM,> 100 µM,–,12.8 µM,–
